Consider 4 compounds from patent US10858331B1, “Ester nitrates derivatives of aromatic aldehydes with multiple pharmalogic properties to treat sickle cell disease” (VIRGINIA COMMONWEALTH UNIVERSITY, priority 2013, dated 2020).

For data set [1], the target named is T1, Hb (Homo sapiens, UniProt P68871+P69905).
T1 construct: normal whole blood (AA); from tissue; host or cells: normal whole blood (AA), red blood cells
Kind of data set: Oxygen equilibrium curve (OEC) study with normal whole blood (AA). Type of data set: cell-based. The settings on record: 2 mM compound, 1.5 h incubation; for P50: 37° C.; for ΔP50: versus DMSO control. As for the experimental part:
(§1) Studies were performed on compounds TD-7, TD-7-1, TD-8, TD-8-1, TD-9 and TD-9-1 using 100 mM stock solution in DMSO and normal whole blood (AA). TD-7, TD-8 and TD-9 are compounds with a hydroxymethyl group on the pyridine ring, while TD-7-1, TD-8-1 and TD-9-1 are the respective nitrate ester derivatives. The whole blood samples had hematocrit values ranging from 29-36%, and cell-free purified Hb of 10-12 g/dL in the absence or presence of effectors solubilized in DMSO at 2 mM or in some cases with varying compound concentration. The blood samples were incubated in an IL 237 tonometer (Instrumentation Laboratories, Inc., Lexington, Mass.) for about 5-7 min at 37° C. against a gas mixture containing O2 concentrations of 0.804%, 2.935% and 5.528% and allowed to equilibrate at O2 tensions of 6, 20 and 40 mmHg. After equilibration, the sample was removed via syringe and aspirated into a ABL 700 series table top automated blood gas analyzer (Radiometer America, Inc., Westlake, Ohio) to determine total hemoglobin (tHb), hematocrit (Hct), pH, pCO2, partial pressure of oxygen (pO2), and the Hb oxygen saturation values (sO2). Similar procedures were followed for concentration and time dependence studies. The measured values of pO2 and sO2 at each oxygen saturation level were then subjected to a non-linear regression analysis using the program Scientist (Micromath, Salt Lake City, Utah) with the following equation: […]
This equation was used to calculate P50 and Hill coefficient (N) values. Corresponding control experiments without the test compound (P50control) but containing DMSO were also performed.

A short description of data set [2]: NO release study (Griess assay) in presence of L-cysteine. To be noted: for NO2− release after 16 hours / NO2− release after 1 hour: 2 mM compound solution mixed with 36 mM L-cysteine, phosphate buffer pH 7.4, 37° C., anaerobic; for NO release in the form of NO2− (rank among the compounds): comparison of the four nitrate esters. As for the experimental part:
Griess assay was performed on the left-shifting nitrate ester compounds (TD-1, […], TD-8-1 and, TD-9-1) to measure the release of NO. Griess assay is a colorimetric assay, used for detection of NO in the form of nitrite ions (NO2^−). NO released in solution is highly unstable, with a half-life of 1 to 30 s. It gets rapidly oxidized to NO2^− which is detected by the Griess reagent. In this method, NO2^−, first reacts with the sulfanilamide present in the reagent to form a transient diazonium salt. […] Sodium nitrite (NaNO2) was used as a standard for the Griess assay. NaNO2 samples in deionized water were prepared of concentrations within the linear range of the assay (1-100 μM). The samples were incubated for 30 min at 37° C., after which Griess reagent was added and absorbance was measured at 540 nm. The measured absorbances were used to obtain a standard curve (FIG. 3). For the measurement of NO2^− release for all the test compounds (TD-1, TD-7-1, TD-8-1 and TD-9-1), the absorbances were extrapolated from the standard NaNO2 curve.
In this assay, a solution of the test compound (1 mL of a 2 mM solution in 0.1 M phosphate buffer (pH 7.4)) was mixed thoroughly with a freshly prepared solution of L-cysteine (1 mL of a 36 mM solution in 0.1 M phosphate buffer, pH 7.4), and incubated at 37° C., for 1 and 16 h under anaerobic conditions. After exposure to air for 10 min at 25° C., an aliquot of the Griess reagent (1 mL) [freshly prepared by mixing equal volumes of 1.0% sulfanilamide (prepared and stored in aqueous 5% phosphoric acid) and 0.1% N-naphthylethylenediamine dihydrochloride in water] was added to an equal volume (1 mL) of each incubation solution after mixing. After 10 min, absorbance was measured at 540 nm using a Hewlett Packard (Agilent) 8453 UV-visible Spectroscopy. NaNO2 solutions of 1-100 μM concentrations were used to prepare a standard nitrite curve of absorbance […] versus concentration (μM). The NO released (quantitated as NO2^− release in μM) was calculated from the standard nitrite curve by extrapolation of the absorbance. […]
In general terms: Nitrite, measured by Griess reagent, commonly stands in for NO production.

In data set [3] the target is T2, cell-free Hb (Homo sapiens, UniProt P68871+P69905).
T2 construct: Hemoglobin was prepared from centrifuging human blood; from tissue; host or cells: human blood (red cells lysed, Hb purified on DEAE sephacel)
T2 sequence (P69905 2-142 limits assumed): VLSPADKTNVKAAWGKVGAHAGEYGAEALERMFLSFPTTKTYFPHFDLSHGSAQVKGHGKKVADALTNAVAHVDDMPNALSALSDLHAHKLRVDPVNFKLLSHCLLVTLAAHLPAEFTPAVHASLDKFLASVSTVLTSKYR
T2 sequence (P68871 2-147 limits assumed): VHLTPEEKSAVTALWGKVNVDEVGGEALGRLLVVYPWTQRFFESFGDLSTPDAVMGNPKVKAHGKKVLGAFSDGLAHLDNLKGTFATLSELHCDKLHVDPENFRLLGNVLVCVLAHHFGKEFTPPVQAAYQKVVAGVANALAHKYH
Put plainly: OEC study with normal cell-free Hb. The class given is biochemical. To be noted: cell-free Hb 12 mg/mL, 2 mM compound; for N (Hill coefficient) / P50: n = 1; for ΔP50: versus control P50 12.5. As for the experimental part:
as §1
Hemoglobin was prepared from centrifuging human blood at 2500 rpms for 20 min at 4° C. The supernatant solution, debris and plasma were discarded from the centrifuge bottles, leaving behind RBCs. The RBCs were washed thrice with an excess volume of 0.9% NaCl, and once with 1.0% NaCl, each time centrifuging and discarding the supernatant solution. The RBCs were pooled together into a chilled flask and hemolyzed to free Hb by adding 1-2 volume excess of 50 mM Tris buffer, pH 8.6 (containing EDTA). The mixture was allowed to stand in ice for 30 min with occasional stirring. The Hb solution was centrifuged at 10,000 rpm for 2 h at 4° C. The supernatant Hb solution was pooled into a chilled flask and NaCl (40-60 mg/mL Hb solution) was slowly added with stirring. Hemoglobin solution was centrifuged at 10,000 rpm for 2 h at 4° C. to remove any cell stroma remnants. The clear supernatant Hb solution was pooled into a chilled flask and the “syrupy” pellet was discarded. Hemoglobin solution was dialyzed against 50 mM Tris buffer, pH 8.6 (containing EDTA) at 4° C. to remove NaCl and/or other low molecular weight impurities. Strips of standard cellulose dialysis tubing that had been washed 3-4 times and boiled for 10 min in deionized water were used for dialysis. The dialyzed Hb was further purified by ion-exchange chromatography using DEAE sephacel to exclude 2,3-DPG. The resin was equilibrated with 50 mM Tris buffer, pH 8.6, and the Hb solution was run through the column with 50 mM Tris buffer, pH 8.6 (containing EDTA). The pooled fractions were concentrated with an Amicon stirred cell (Amicon, Model 402), to a final HbA concentration of about 80-120 mg/mL. Concentrated HbA was stored at −80° C.
As a result of the low left-shifting activities of TD-8 and TD-9, as well as the nitrate ester derivatives, we further evaluated the activity of the compounds TD-1, TD-7, TD-7-1, TD-8, and TD-9 using cell-free Hb (devoid of any proteins, enzymes, plasma and cell membranes) to determine whether plasma protein or RBC membrane could have any effect on compound biological activity. Previous studies have shown limited effect of plasma protein and RBC membrane on SHMF activity. The same tonometry procedure used on whole blood was used with the cell-free hemoglobin using 2 mM compound and 12 mg/mL of Hb.

The subject of data set [4] is SS cells. Kind of data set: In vitro RBC anti-sickling (morphological) study with SS cells. The class given is cell-based, human. As for the experimental part: In vitro RBC morphological (anti-sickling) analysis was conducted at the Children's Hospital of Philadelphia (by Drs. Toshio Asakura and Osheiza Abdulmalik). The anti-sickling effects of 5HMF, TD-7 HCl, TD-7, TD-1, and TD-7-1 were studied by incubating suspensions of SS cells in the absence or presence of three different concentrations of the effectors in the presence of air for 1 h at 37° C. followed by incubation under 4% oxygen at 37° C. for 5 h. All samples were pre-incubated for 1 h with various compounds and then incubated under 4% O2 for 5 h. […] Table 5 represents the concentrations of the effectors along with the % inhibition of sickling cells. The hemolysates that had been prepared from SS cells after incubation with test compounds were also subjected to cation-exchange HPLC as previously reported (Abdulmalik et al., 2005).

T1 sequence (P69905 2-142 limits assumed): as the sequence (P69905 2-142 limits assumed) above
T1 sequence (P68871 2-147 limits assumed): as the sequence (P68871 2-147 limits assumed) above

For the compound `COc1ccc(C=O)c(OCc2cccc(CO[N+](=O)[O-])n2)c1` [TD-9-1, (6-((2-Formyl-5-methoxyphenoxy)methyl)pyridin-2-yl)methyl nitrate], in data set [1], the “N (Hill coefficient)” value is given as 1.9^d†, the P50 is reported as 28.6^d† mmHg and the ΔP50 was −2.7 mmHg. Moreover, in data set [2], the “NO2− release after 16 hours” value stood at 78.66 µM.

Consider `O=Cc1ccc(CO[N+](=O)[O-])o1` [TD-1, 5-Nitrooxymethyl furfural], for which, in data set [1], the “N (Hill coefficient)” value is 1.9 ± 0.1^c†, the P50 was 27.4 ± 2.3^c† mmHg and the ΔP50 is listed as −3.9 mmHg. Further, in data set [3], the “N (Hill coefficient)” value was 2.0, the P50 is on record as 8.4 mmHg and the ΔP50 is −4.1 mmHg. Moreover, in data set [2], the “NO2− release after 1 hour” value was determined as 4.02 µM and the “NO release in the form of NO2− (rank among the compounds)” value is recorded as “least release”. Besides, the “Anti-sickling effect (in words)” value in data set [4] (SS cells, 4% O2, 5 h, concentration not given, in comparison with 5HMF) was “only a modest decrease in the anti-sickling effect”.

On to `COc1ccc(C=O)cc1OCc1cccc(CO[N+](=O)[O-])n1` [TD-8-1, (6-((5-Formyl-2-methoxyphenoxy)methyl)pyridin-2-yl)methyl nitrate], for which, in data set [1], the “N (Hill coefficient)” value is listed as 2.1^d†, the P50 is 30.8^d† mmHg and the ΔP50 is on record as −0.5 mmHg. In addition, in data set [2], the “NO2− release after 16 hours” value came out at 102.54 µM and the “NO release in the form of NO2− (rank among the compounds)” value was “most release”.

Turning to `COc1ccc(OCc2cccc(CO[N+](=O)[O-])n2)c(C=O)c1` [TD-7-1, (6-((2-Formyl-4-methoxyphenoxy)methyl)pyridin-2-yl)methyl nitrate], in data set [1], the “N (Hill coefficient)” value is listed as 1.7 ± 0.1^c†, the P50 is 23.4 ± 1.6^c† mmHg and the ΔP50 was −7.9 mmHg. In data set [3], the “N (Hill coefficient)” value is on record as 2.1, the P50 is recorded as 7.7 mmHg and the ΔP50 is −3.9 mmHg. In data set [2], the “NO2− release after 1 hour” value turned out to be 7.61 µM and the “NO2− release after 16 hours” value was found to be 59.25 µM. In addition, the inhibition at 500 µM in data set [4] (Homo sapiens, 0.5 mM, SS cells, 1 h air then 4% O2, 37° C., 5 h, read-out: Inhibition of sickled cells) amounted to 72%. In addition, in data set [4] (Homo sapiens, 1.0 mM, SS cells, 1 h air then 4% O2, 37° C., 5 h, read-out: Inhibition of sickled cells), the inhibition at 1000 µM was 100%. Further, the inhibition at 2000 µM in data set [4] (Homo sapiens, 2.0 mM, SS cells, 1 h air then 4% O2, 37° C., 5 h, read-out: Inhibition of sickled cells) was determined as 100%. The “Hemolysis of RBC” value in data set [4] (at higher drug concentrations) was “hemolyzed the RBC at higher drug concentrations”.

In general, inhibition refers to the change of the read-out against control, counted positive when it falls.
